Consider six molecules from PMC6979073, “Control of glutamate release by complexes of adenosine and cannabinoid receptors” (BMC Biology, 2020).

In one assay the target is A2AR-CB1R heterotetramer (Homo sapiens, UniProt P21554+P29274).
Assay [1] addresses CB1R (Homo sapiens, UniProt P21554). The following applies: CP55940 200 nM; cells transfected with CB1R.
The next assay deals with A2AR-CB1R heteromer (Homo sapiens, UniProt P21554+P29274).
Assay [2] relates to rat striatal synaptosomes. Nature of the assay: Depolarization-evoked glutamate release from striatal synaptosomes. Type of assay: cell-based. The following applies: for Evoked glutamate release, expressed as the difference in % of the control value: WIN55,212-2 0.1 μM, n = 6.
Assay [3] relates to CB1R. Also noted: method as in PMID 16365309, PMID 1331766. The following applies: cited from earlier work.
In assay [4] the test system is CB1R. Details: method as in PMID 16365309, PMID 1331766. The following applies: cited from earlier work. This is another data set of the same source.
The mark [5] stands for this setting: PTX 10 ng/ml overnight or CTX 100 ng/ml 2 h.

Where two headings read alike, the source gives them in different places.

A2AR-CB1R heterotetramer, sequence (P29274 whole entry): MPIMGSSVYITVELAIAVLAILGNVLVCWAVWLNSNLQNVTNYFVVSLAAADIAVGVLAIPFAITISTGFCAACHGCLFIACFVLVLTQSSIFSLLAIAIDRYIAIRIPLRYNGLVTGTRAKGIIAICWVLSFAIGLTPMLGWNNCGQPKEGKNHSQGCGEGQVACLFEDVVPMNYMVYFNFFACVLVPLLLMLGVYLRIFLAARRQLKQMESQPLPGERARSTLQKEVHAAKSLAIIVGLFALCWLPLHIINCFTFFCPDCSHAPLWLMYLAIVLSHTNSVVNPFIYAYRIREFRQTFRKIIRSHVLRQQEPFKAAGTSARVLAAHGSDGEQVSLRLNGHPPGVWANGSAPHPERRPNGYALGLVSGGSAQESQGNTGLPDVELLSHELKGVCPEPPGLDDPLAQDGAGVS
A2AR-CB1R heterotetramer, sequence (P21554 whole entry): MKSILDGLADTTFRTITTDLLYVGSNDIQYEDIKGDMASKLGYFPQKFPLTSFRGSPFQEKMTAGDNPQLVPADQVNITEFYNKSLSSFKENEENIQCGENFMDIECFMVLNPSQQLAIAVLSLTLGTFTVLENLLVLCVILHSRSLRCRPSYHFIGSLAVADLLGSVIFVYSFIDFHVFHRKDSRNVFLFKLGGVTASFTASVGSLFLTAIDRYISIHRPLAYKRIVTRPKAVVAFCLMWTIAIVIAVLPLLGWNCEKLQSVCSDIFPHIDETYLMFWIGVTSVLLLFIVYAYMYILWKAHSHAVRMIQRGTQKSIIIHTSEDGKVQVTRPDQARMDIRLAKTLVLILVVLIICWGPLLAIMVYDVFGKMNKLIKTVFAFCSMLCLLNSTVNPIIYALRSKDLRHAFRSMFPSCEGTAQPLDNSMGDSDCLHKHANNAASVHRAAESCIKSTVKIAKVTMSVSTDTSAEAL
A2AR-CB1R heteromer, sequence (P29274 whole entry): as the sequence (P29274 whole entry) above
A2AR-CB1R heteromer, sequence (P21554 whole entry): as the sequence (P21554 whole entry) above
CB1R (Homo sapiens, UniProt P21554), sequence (P21554 whole entry): as above

Take cholera toxin [CTX]: at A2AR-CB1R heterotetramer, the “Effect on CGS21680-induced cAMP increase” value is recorded as “blockade” and the “Effect on CP55940-induced cAMP decrease” value was “also blocked”.
With `CCCCCCC(C)(C)c1ccc([C@@H]2C[C@H](O)CC[C@H]2CCCO)c(O)c1` [CP55940], the “Effect on cAMP formation induced by forskolin (500 nM)” value at CB1R [1] was “decreased cAMP formation”. On A2AR-CB1R heterotetramer, the “Effect on CGS21680-mediated increase in cAMP” value is recorded as “counteracted CGS21680-mediated increase in cAMP”. Further, the “Effect on the concentration-response curve of NECA (Gs activation)” value at A2AR-CB1R heteromer (CP55940 10 μM, Gαs-YFP) is “did not produce a significant shift”. At A2AR-CB1R heteromer (cells co-transfected with either Gαs-, Gαi1- or Gαq-YFP), the “Concentration-response curve of ligand-induced changes in BRET: G protein coupling” value was “could only be obtained when the cells were transfected with Gαi-YFP”.
For the molecule `Nc1nc2c(cnn2CCc2ccccc2)c2nc(-c3ccco3)nn12` [SCH58261], in assay [2], the “Effect of co-application on the effect of WIN55,212-2 on glutamate release” value was “did not significantly modify”; the “Effect on the concentration-response inhibitory curve of WIN55,212-2” value is “shifted to the right”; the “Effect on the inhibition of glutamate release by 0.01 and 0.03 μM of WIN55,212-2” value is “fully prevented”. For the same molecule, the “Effect on evoked glutamate release” value in assay [2] (SCH58261 10 μM) is recorded as “significantly inhibited the evoked glutamate release”.
As for pertussis toxin [PTX], the “Effect on WIN55,212-2 (0.1 μM) inhibition of glutamate release” value in assay [2] (PTX 2 μg/ml, 4 h at 4 °C) is given as “fully prevented this inhibition”. On A2AR-CB1R heterotetramer (setting [5]), the “Effect on CGS21680-induced cAMP increase” value is on record as “also blocked” and the “Effect on CP55940-induced cAMP decrease” value is listed as “blockade”.
`Cc1c(C(=O)c2cccc3ccccc23)c2cccc3c2n1[C@H](CN1CCOCC1)CO3` [WIN55,212-2]: the “Evoked glutamate release, expressed as the difference in % of the control value” is given as 114.6% ± 6.8 in assay [2] (synaptosomes incubated 4 h at 4 °C with PTX (2 μg/ml)) and 82.9% ± 3.6 in assay [2] (toxin-naïve synaptosomes). For the same molecule, in assay [2] (WIN55212-2 0.3 μM), the “Further inhibition of evoked glutamate release in the presence of SCH58261 (10 μM)” value is listed as “could not be further inhibited”. Besides, the concentration for a half-maximal effect (EC50) in assay [2] (WIN55,212-2 alone, 30 mM KCl, read-out: EC50 of inhibition of evoked glutamate release) turned out to be 5.5 nM. The “Maximal effect on evoked glutamate release” value in assay [2] (at 0.03 μM) is on record as 77.0 ± 3.0 % of DMSO control. Further, in the assay on CB1R [3], the “Potency relative to CP55940 at eliciting Gq-dependent intracellular calcium increase” value is “more”. The “Potency relative to CP55940 at inhibiting forskolin-induced cAMP production” value in the assay with CB1R [4] is reported as “less potent”.
In the case of `CCNC(=O)[C@H]1O[C@@H](n2cnc3c(N)nc(NCCc4ccc(CCC(=O)O)cc4)nc32)[C@H](O)[C@@H]1O` [CGS21680], the “Effect on the inhibition of glutamate release by 0.01 and 0.03 μM of WIN55,212-2” value in assay [2] (CGS21680 0.03 μM or SCH58261 0.1 μM) was “fully prevented”. Moreover, the “Effect of co-application on the effect of WIN55,212-2 on glutamate release” value in assay [2] (CGS21680 0.03 μM plus SCH58261 0.1 μM) is “did not significantly modify”.
